{"source": "patent EP0059258A1", "about": "“Pharmaceutical preparations comprising polyprenyl compounds, especially as anti-cancer agents, and pharmaceutical compositions for the prevention and treatment of cancer and skin diseases” (Eisai Co., Ltd., priority 1980, dated 1982)", "data": [{"tested_on": "papillomata", "experiment": "Anti-cancer activity: mouse skin papilloma test (7,12-dimethylbenzanthracene / croton oil induced)", "format": "in vivo, mouse (ICR strain, female)", "conditions": "administered orally as 20 mg/ml solution in groundnut oil, 10 times for 14 days; total diameter on the 14th day vs. prior to administration", "method": "A mouse (ICR strain, female, 50 days age) was shaved at the back of neck (to the extent of 5 cm^2). 7,12-Dimethylbenzo-[2]-anthracene was dissolved in acetone to give-75 mg /100 ml. solution. The so prepared solution was applied to the mouse on the 60th day of age and further on the 75th day of aqe in the amount of 0.2 ml per mouse.\nCroton oil was dissolved in acetone to give 250 mg/ 100 ml solution, and the so prepared solution was applied to the mouse in the amount of 0.2 ml per mouse,-twice a week until the treatment was started. When 3 - 7 papillomata (diamether of 3 - 8 mm for each, and total diameter of 30 - 60 mm ) were produced for a mouse, the treatment was started.\nThe compound to be tested (test compound) was dissolved in groundnut oil to give 20' mg /ml solution, and administered orally to the mouse. The solution was administered 10 times for 14 days (once a day), and the diameters of the papillomata were measured on the 14th day to determine the total diameter for each mouse. Ratio of increase or decrease of the papillomata was calculated from the total diameter on the 14th day and the total diameter measured prior to the starting of administration of the test compound. This value was adopted' for evaluating the anti-cancer activity.", "units": {"Ratio of increase or decrease of papillomas(%)": "%"}, "values": [{"smiles": "CC(C)=CCCC(C)=CCCC(C)=CCCC(C)=CC=CC(C)=CC(=O)O", "note": "[(1), 3,7,11,15,19-pentamethyl-2,4,6,10,14,18-eicosahexa-enoic acid]", "Ratio of increase or decrease of papillomas(%)": "−24.0"}, {"smiles": "CC(C)=CCCC(C)CCCC(C)=CC=CC(C)=CC(=O)O", "note": "(stereo not drawn) [(2), 3,7,11,15-tetramethyl-2,4,6,14-hexadecatetraenoic acid]", "Ratio of increase or decrease of papillomas(%)": "−19.5"}, {"smiles": "CCOC(=O)C=C(C)C=CC=C(C)CCCC(C)CCC=C(C)C", "note": "(stereo not drawn) [(3), ethyl 3,7,11,15-tetramethyl-2,4,6,14-hexadecatetra-enoate]", "Ratio of increase or decrease of papillomas(%)": "−10.2"}, {"smiles": "CC(C)=CCCC(C)=CC=CC(C)=CC=CC(C)=CC(=O)O", "note": "[(4), 3,7,11,15-tetramethyl-2,4,6,8,10,14-hexadecahexaeno-ic acid]", "Ratio of increase or decrease of papillomas(%)": "−26.3"}, {"smiles": "CC(C)=CCCC(C)=CCCC(C)=CC=CC(C)=CC(N)=O", "note": "[(5), 3,7,11,15-tetramethyl-2,4,6,10,14-hexadecapentaeno-amide]", "Ratio of increase or decrease of papillomas(%)": "−25.5"}, {"smiles": "CCOC(=O)C=C(C)C=CC=C(C)CCC=C(C)CCC=C(C)C", "note": "[(6), ethyl 3,7,11,15-tetramethyl-2,4,6,10,14-hexadeca-pentaenoate]", "Ratio of increase or decrease of papillomas(%)": "−17.5"}, {"smiles": "CC(=O)C=CC=C(C)CCC=C(C)CCC=C(C)CCC=C(C)C", "note": "[(7), 6,10,14,18-tetramethyl-3,5,9,13,17-nonadecapentaen-2-on]", "Ratio of increase or decrease of papillomas(%)": "−12.7"}, {"smiles": "CC(C)=CCCC(C)=CCCC(C)=CCCC(C)=CC(=O)O", "note": "[(8), 3,7,11,15-tetramethyl-2,6,10,14-hexadecatetraenoic acid]", "Ratio of increase or decrease of papillomas(%)": "−6.5"}, {"smiles": "CC(=O)CCC=C(C)CCC=C(C)CCC=C(C)CCC=C(C)C", "note": "[(9), 6,10,14,18-tetramethyl-5,9,13,17-nonadecatetraen-2-on]", "Ratio of increase or decrease of papillomas(%)": "−8.2"}]}]}
